Measured values: patent US20250041303A1, “COMBINATION THERAPY FOR CANCER TREATMENT” (INSTITUTE FOR CANCER RESEARCH D/B/A THE RESEARCH INSTITUTE …, priority 2021, published 2025)

How the values were obtained:
[1] = test system: BET proteins (BRD2, BRD3 or BRD4); test: Western blot of BET protein degradation, parental vs degrader-resistant cells; format: cell-based; conditions: A1847 dBET6-R or MZ1-R vs parental; 2 μM, 4 hours
Procedure: (§2) Samples were harvested in MIB lysis buffer (50 mM HEPES (pH 7.5), 0.5% Triton X-100, 150 mM NaCl, 1 mM EDTA, 1 mM EGTA, 10 mM sodium fluoride, 2.5 mM sodium orthovanadate, 1× protease inhibitor cocktail (Roche), and 1% each of phosphatase inhibitor cocktails 2 and 3 (Sigma)). Particulate was removed by centrifugation of lysates at 21,000 rpm for 15 minutes at 4° C. Lysates were subjected to SDS-PAGE chromatography and transferred to PVDF membranes before western blotting with primary antibodies. […] Secondary HRP-anti-rabbit and HRP-anti-mouse were obtained from ThermoFisher Scientific. SuperSignal West Pico and Femto Chemiluminescent Substrates (Thermo) were used to visualize blots.

CDK9 [2] = molecular target: T1, CDK9 (Homo sapiens, UniProt P50750); test: Western blot of CDK9 degradation, A1847 parental vs Thal-R cells; format: cell-based; conditions: A1847 Thal-R vs parental; 2 μM, 4 hours
Procedure: as §2

BRD4 (BET proteins) = molecular target: T2, BRD4 (BET proteins) (Homo sapiens, UniProt O60885); test: Western blot of BET protein/BRD4 degradation in DLD-1 cells; format: cell-based; conditions: 4 hours
T2 construct: endogenous in cells; host or cells: DLD-1
Procedure: as §2

[3] = test system: ERBB3 and downstream AKT signaling; test: Western blot of MEKi-induced ERBB3/AKT signaling in LS513 cells; format: cell-based; parameters: dose or concentration left out as unconfirmed; conditions: LS513, 48 hours
Procedure: as §2

LS513 xenografts = test: Tumor xenograft experiment; format: in vivo, nude mice; conditions: MS934 50 mg/kg intraperitoneal daily, lapatinib 100 mg/kg oral gavage daily, or the combination; two weeks
Procedure: Animal studies were conducted in accordance with the guidelines set forth by the Institutional Animal Care and Use Committee. 1×10^6 LS513 cells were prepared in growth factor reduced Matrigel (Corning) 1:1 and injected into the right flank of 6- to 8-weeks old nude mice. […] For in vivo studies, MS934 was resuspended in 5% N-methyl-2-pyrrolidinone (NMP), 5% Kolliphor HS-15 (sigma) and 90% saline; and delivered by intraperitoneal injection (daily). […] Tumor volumes were evaluated every two days using a caliper and the volume was calculated applying the following formula: [(width)^2×(length)]/2.

KRASG12C = molecular target: T3, KRASG12C (Homo sapiens, UniProt P01116, G12C); test: Western blot of KRASG12C and effector signaling in SW1463 cells; format: cell-based; conditions: SW1463, 48 hours
T3 construct: endogenous in cells; host or cells: SW1463
Procedure: as §2

[4] = test system: A1847 dBET6-R or Thal-R cells; test: Apoptosis by western blot in degrader-resistant A1847 cells; format: cell-based; conditions: 2 μM, 4 hours
Procedure: as §2

MDR1 [5] = molecular target: T4, MDR1 (Homo sapiens, UniProt P08183); test: Rhodamine 123 efflux assay in DLD-1 cells; format: cell-based; parameters: endogenous in cells; conditions: 2 μM
Procedure: (§1) Efflux assay was performed according to manufacturer's protocol (Millipore Sigma #ECM910). Cells were resuspended in cold efflux buffer and incubated with Rhodamine 123 for 1 hour on ice. Cells were centrifuged and treated in warm efflux buffer with DMSO or drug for 30-60 minutes, washed with cold PBS, and effluxed dye was quantified with a plate reader at an excitation wavelength of 485 nm and an emission wavelength of 530 nm.

MDR1 [6] = molecular target: T4, MDR1; test: Rhodamine 123 efflux assay in LS513 cells; format: cell-based; parameters: endogenous in cells; conditions: 2 μM
Procedure: as §1, with “Cells were resuspended in cold efflux buffer and incubated with Rhodamine 123 for 1 hour on ice.” left out

CDK9 [7] = molecular target: T1, CDK9; test: Western blot of CDK9 degradation in DLD-1 cells; format: cell-based; parameters: endogenous in cells; host or cells: DLD-1; conditions: DLD-1; increasing doses of Thal SNS 032 plus the compound at 2 μM, 4 hours
Procedure: as §2

DLD-1 cells = test: Colony formation assay (14 days) in DLD-1 cells
[8] = test system: A1847 and SUM159 parental and degrader-resistant cells; test: CellTiter-Glo cell viability, parental vs degrader-resistant cells; conditions: increasing concentrations; A1847 dBET6-R, Thal-R, MZ1-R and SUM159 MZ1-R
MDR1 [9] = molecular target: T4, MDR1; test: Rhodamine 123 efflux assay in degrader-resistant cells; format: cell-based; parameters: endogenous in cells; host or cells: A1847 parental, dBET6-R, Thal-R; SUM159 parental, MZ1-R; conditions: A1847 dBET6-R or Thal-R cell lines; 2 μM
Procedure: as §1

[10] = lapatinib 5 μM or tariquidar 0.01 μM

T4 sequence (P08183 whole entry): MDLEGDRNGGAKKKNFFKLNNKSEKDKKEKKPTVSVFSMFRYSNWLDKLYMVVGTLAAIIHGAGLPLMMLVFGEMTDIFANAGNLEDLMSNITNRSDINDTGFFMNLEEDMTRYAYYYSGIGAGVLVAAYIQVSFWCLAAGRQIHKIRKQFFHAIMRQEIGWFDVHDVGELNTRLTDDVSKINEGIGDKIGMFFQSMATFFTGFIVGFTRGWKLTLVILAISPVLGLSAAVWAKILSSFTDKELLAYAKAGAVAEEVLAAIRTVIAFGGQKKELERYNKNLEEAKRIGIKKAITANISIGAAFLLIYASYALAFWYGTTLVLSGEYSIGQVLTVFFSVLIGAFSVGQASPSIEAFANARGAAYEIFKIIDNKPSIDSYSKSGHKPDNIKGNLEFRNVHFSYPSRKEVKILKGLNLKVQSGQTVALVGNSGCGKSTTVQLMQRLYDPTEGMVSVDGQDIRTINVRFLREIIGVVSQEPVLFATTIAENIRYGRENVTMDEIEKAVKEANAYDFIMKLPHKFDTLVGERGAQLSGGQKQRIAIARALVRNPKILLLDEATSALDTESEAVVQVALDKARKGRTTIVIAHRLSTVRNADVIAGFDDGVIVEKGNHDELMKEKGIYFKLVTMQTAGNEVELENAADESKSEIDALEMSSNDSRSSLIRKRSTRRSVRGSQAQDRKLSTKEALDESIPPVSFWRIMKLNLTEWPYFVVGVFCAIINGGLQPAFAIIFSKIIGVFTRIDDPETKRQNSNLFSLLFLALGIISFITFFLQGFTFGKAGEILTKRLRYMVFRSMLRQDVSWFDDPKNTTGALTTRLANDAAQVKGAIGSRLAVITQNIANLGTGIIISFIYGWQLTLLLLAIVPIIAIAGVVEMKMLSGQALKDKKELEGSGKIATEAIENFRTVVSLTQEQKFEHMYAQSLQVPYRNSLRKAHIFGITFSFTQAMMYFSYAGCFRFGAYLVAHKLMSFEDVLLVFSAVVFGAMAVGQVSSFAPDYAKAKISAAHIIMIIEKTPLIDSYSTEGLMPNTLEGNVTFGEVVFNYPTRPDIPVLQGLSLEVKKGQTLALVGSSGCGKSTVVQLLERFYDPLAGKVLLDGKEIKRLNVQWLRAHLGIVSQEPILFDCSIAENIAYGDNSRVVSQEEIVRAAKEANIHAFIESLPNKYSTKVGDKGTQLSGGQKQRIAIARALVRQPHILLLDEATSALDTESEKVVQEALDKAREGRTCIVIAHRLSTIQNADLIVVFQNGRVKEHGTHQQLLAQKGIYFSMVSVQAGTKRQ
T1 sequence (P50750 whole entry): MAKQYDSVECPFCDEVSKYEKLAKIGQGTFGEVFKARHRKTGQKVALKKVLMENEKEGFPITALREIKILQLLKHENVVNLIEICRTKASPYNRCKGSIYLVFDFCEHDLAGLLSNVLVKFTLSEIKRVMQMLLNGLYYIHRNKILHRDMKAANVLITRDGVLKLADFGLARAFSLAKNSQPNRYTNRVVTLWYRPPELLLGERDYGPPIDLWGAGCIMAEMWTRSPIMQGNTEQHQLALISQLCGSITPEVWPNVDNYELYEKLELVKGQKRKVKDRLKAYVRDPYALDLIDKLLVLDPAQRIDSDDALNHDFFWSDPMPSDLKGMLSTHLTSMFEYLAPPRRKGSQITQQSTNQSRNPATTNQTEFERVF
T1 sequence (O60563 whole entry partner): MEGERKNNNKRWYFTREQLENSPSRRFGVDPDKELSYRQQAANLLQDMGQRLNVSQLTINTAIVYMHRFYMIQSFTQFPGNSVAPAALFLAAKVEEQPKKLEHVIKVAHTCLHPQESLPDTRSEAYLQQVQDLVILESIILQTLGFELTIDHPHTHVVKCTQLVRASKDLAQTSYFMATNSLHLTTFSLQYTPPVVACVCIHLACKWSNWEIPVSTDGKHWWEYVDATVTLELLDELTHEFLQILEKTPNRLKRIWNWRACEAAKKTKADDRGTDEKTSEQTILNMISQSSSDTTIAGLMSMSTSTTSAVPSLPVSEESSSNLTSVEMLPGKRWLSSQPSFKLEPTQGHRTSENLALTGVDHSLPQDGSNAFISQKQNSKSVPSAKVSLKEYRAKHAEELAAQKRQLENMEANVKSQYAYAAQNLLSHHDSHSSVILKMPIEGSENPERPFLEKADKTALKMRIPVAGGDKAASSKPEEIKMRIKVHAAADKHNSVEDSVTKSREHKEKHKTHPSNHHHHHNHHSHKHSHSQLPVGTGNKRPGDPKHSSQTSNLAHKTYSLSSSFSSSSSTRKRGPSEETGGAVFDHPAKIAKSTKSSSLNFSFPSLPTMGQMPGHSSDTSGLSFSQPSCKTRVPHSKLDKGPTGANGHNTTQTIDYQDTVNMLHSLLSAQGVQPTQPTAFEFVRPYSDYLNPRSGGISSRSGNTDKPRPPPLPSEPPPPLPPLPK

reduction in concentrations of dBET6 required to degrade BRD4 when combined (BRD4 (BET proteins); combined with the compound at 2 μM): 100 fold
phosphorylation of MEK and ERK on combining with LC-2 (KRASG12C; [10]): reduced phosphorylation of MEK and ERK
degradation of CDK9 by Thal SNS 032 on combined treatment (CDK9 [7]): improving degradation of CDK9
SMILES: CS(=O)(=O)CCNCc1ccc(-c2ccc3ncnc(Nc4ccc(OCc5cccc(F)c5)c(Cl)c4)c3c2)o1 [lapatinib]
degradation of BET proteins in degrader-resistant cell lines [1]: resulted in degradation of BET proteins
degradation of CDK9 in degrader-resistant cell lines (CDK9 [2]): resulted in degradation of BET proteins (FIG. 5, Panel G; FIG. 12, Panels E and F) or CDK9
dBET6-mediated degradation of BRD4 on combined treatment (BRD4 (BET proteins); increasing doses of dBET6 plus the compound at 2 μM): improved dBET6-mediated degradation of BRD4
MEK inhibitor-induced ERBB3 and downstream AKT and RAF signaling [3]: could be blocked by lapatinib treatment
tumor growth (tumor volume) (LS513 xenografts): ineffective
PROTAC-mediated degradation of KRASG12C on combining with LC-2 (KRASG12C; [10]): improved PROTAC-mediated degradation of KRASG12C reducing protein levels
CRAF and AKT phosphorylation and apoptosis on combining with LC-2 (KRASG12C; lapatinib 5 μM): uniquely reduced CRAF and AKT phosphorylation, as well as induced apoptosis
apoptosis in degrader-resistant cell lines [4]: resulted in apoptosis similar to tariquidar treatment
MDR1 drug efflux activity (Rhodamine 123 efflux) (MDR1 [5]): reduced MDR1 drug efflux activity similar to tariquidar-treatment
MDR1 drug efflux activity (Rhodamine 123 efflux) (MDR1 [6]): reduced MDR1 drug efflux activity similar to tariquidar
growth inhibition of colonies on combination with Thal SNS 032 (DLD-1 cells; compound at 2 μM, 14 days): enhancing growth inhibition of colonies
colony formation on co-treatment with dBET6 (DLD-1 cells; dBET6 0.1 μM plus the compound at 2 μM, 14-day period): sensitized DLD-1 cells to dBET6
sensitivity of degrader-resistant cells vs parental cells (cell viability) [8]: more sensitive
MDR1 drug efflux activity (Rhodamine 123 efflux) (MDR1 [9]): reduced MDR1 drug efflux activity similar to that observed with tariquidar
